Test results as given in patent US20060141629A1, “Method and system for determining platelet-mediated clot formation” (priority 2004, published 2006).

Legend:
[1] = system: blood from patients receiving coumadin therapy; experiment: PT reagent initiated clot formation (CPA), coumadin patients; assay type: cell-based
Protocol: In this assay PT-fibrinogen reagent (Instrumentation Laboratories) was diluted 1:10 in normal saline containing 0.5% BSA to yield a 10% solution. On the upper cap of a CPA well set attached to a magnetic stirrer 1.6 μl of 1M CaCl2 and 3.8; or 4.0 μl of the diluted PT reagent were added. The stirrer assembly was placed in a CPA well containing 130 μl of whole blood and spinning at about 720 rpm started immediately. The spinning was stopped after 2 min. The well was then washed and stained as described above, and clot % surface coverage and clot average size were determined.

[2] = INR (ratio of PT clotting times) in patients on coumadin; assay type: in vivo; settings: patients receiving coumadin therapy; normal INR 0.8-1.3
[3] = system: vitamin K dependent clotting factors (II, VII, IX and X); experiment: Level of vitamin K dependent clotting factors on coumadin therapy; assay type: in vivo; settings: patient on coumadin therapy, INR=3.0
[4] = system: blood from a patient receiving heparin therapy; experiment: Heparin inhibition of factor Xa clot formation (CPA); assay type: cell-based
Protocol: In the following experiment bovine factor Xa (Sigma) and CaCl2 were used to initiate clot formation in whole blood. On the upper cap of a CPA well set was placed 2.2 μl of a factor Xa solution (7×10^−3 unit/ml) and 1.6 μl of 1M CaCl2. The stirrer assembly was placed in a well containing 130 μl of whole blood and spinning at about 720 rpm started immediately. The spinning was stopped after 2 min. The well was then washed and stained, and the clot % surface coverage and the clot average size were determined.

[5] = PTT of patient receiving heparin therapy; assay type: in vivo; settings: normal 26-34 sec
[6] = system: whole blood sample from a healthy subject; experiment: Titration of thrombin inhibitor hirudin with thrombin (CPA); assay type: cell-based
Protocol: The levels of thrombin inhibitory drugs such as hirudin and its analogs were determined by titrating the thrombin inhibitor in a whole blood sample with thrombin. To a whole blood sample from a healthy subject hirudin (Sigma) was add to a level of 5×10^−1 anti-thrombin Units/ml. Bovine thrombin (Sigma) (5 Units/ml or 10 Units/ml) was then added to the hirudin treated and untreated whole blood. The thrombin was placed on the upper cap of a CPA well set attached to a magnetic stirrer. The stirrer assembly was placed in a well containing 130 μl of whole blood and spinning at about 720 rpm started immediately. After two min. the spinning was stopped. As described above, the well was washed and stained, and the clot % surface coverage and clot average size determined.

[7] = system: normal blood samples (citrated whole blood); experiment: Thrombin dose response of fibrin clot formation (CPA, image analysis); assay type: cell-based; settings: FIGS. 2A-2B
Protocol: In this assay, increasing concentrations of thrombin, which promotes fibrin clot formation, were applied to normal blood samples. In particular, thrombin was placed on the tip of the rotating conical disc, in an amount yielding final concentration according to the points indicated in FIG. 3A and FIG. 3B. The conical disc was then applied in the well containing 130 μL of citrated whole blood, rotated at 720 rpm for two minutes followed by washing and staining of the well. For quantitative determination of fibrin clot formation image analysis (using Impact-R image analysis system, DiaMed, Switzerland) was performed.
Image analysis of the stained fibrin clots was performed expressing the amount of clot in terms of % of surface covered (SC, %), and the average size (AS, μm^2) of the stained clots.

[8] = factor Xa and CaCl2 added, FIG. 5D

For `CC(=O)CC(c1ccccc1)c1c(O)c2ccccc2oc1=O` (centres unmarked) [coumadin], which clot formation ([1]; blood from coumadin patients, absence of clot initiator or CaCl2, FIG. 4C) is on record?
Its clot formation is “no clots are formed”.

What about the clot formation ([1]; blood from coumadin treated patients (INR 3.0), PT reagent added, FIG. 4D) of the same compound?
Its clot formation is “no clot formation was observed”.

What about the INR [2] of the same compound?
The INR was 3.0.

What about the “vitamin K dependent clotting factors level” value [3] of the same compound?
The value was 25-40%.

Which clot average size [4, 8] does the source give for heparin here?
Its clot average size is 30.

And the clot formation [4, 8]?
The clot formation was “no clot formation was observed”.

And the surface coverage [4, 8]?
The surface coverage was 3.0%.

And the clot average size ([4]; no factor Xa or CaCl2, FIG. 5C)?
The clot average size was 24.

And the surface coverage ([4]; no factor Xa or CaCl2, FIG. 5C)?
Its surface coverage is 8.2%.

And the PTT [5]?
The PTT was 130 s.

Which clotting ([6]; whole blood containing hirudin, thrombin 4×10^−2 Units/ml, FIG. 7B) does the source give for hirudin here?
Its clotting is “no clotting was observed”.

Which results are given for “thrombin: Bovine thrombin (Sigma), promotes fibrin clot formation; clot initiator”?
thrombin added giving sharp increase in both average size and surface coverage [7]: 0.005 IU/ml; clotting ([6]; added thrombin 6×10^−2 Units/ml, whole blood treated with hirudin, FIG. 7D): Clotting was observed; added thrombin concentration at which clotting began ([6]; thrombin added to the whole blood, FIG. 7C): 1×10^−2 Units/ml
